Laboratory results: US7084155B2, “Chemokine receptor binding heterocyclic compounds” (AnorMED, priority 2000, dated 2006)

Key:
Format in all cases: cell-based
[1] = test system: SDF-1 induced Ca flux in SUP-T1 cells; test: Inhibition of chemokine (SDF-1) induced Ca flux measured on a FLIPR; settings: Homo sapiens
Method: Inhibition of Chemokine Induced Ca Flux Measured on a FLIPR (Molecular Devices) Loading dye: Fluo-3, AM (Molecular Probes F-1241) is dissolved in anhydrous DMSO and stored frozen in aliquots. To increase the solubility of the dye in the loading medium, 10% (w/v) pluronic acid (Molecular Probes F-127) is added to the Fluo-3 stock solution immediately before use. HBSS+20 mM Hepes buffer+0.2% BSA, pH 7.4. HBSS 10× [(w/o phenol red and sodium bicarbonate (Gibco 14 065–049)]; Hepes buffer 1M (Gibco 15 630–056), BSA (Sigma A3675). The flux buffer is vacuum-filtered and stored refrigerated for a maximum of 5 days. Before use in the experiment, the buffer is warmed at 37° C. in a waterbath. The test compounds were diluted in flux buffer to the desired concentration and added to 4 wells of a black microplate (4 parallel measurements per compound). The following control wells were used: 100% response control (no inhibition), flux buffer was added; 100% inhibition control: chemokine was added at 5-times the concentration required to induce a Ca flux. The chemokines are diluted in flux buffer to concentrations that are 4-fold higher than the desired concentrations required for stimulation of the cells (i.e. 2.5 nM for SDF-1[…] and 0.6 nM for RANTES). The chemokines were added to untreated 96-well Sero well compound plates (International Medical, Sterilin code 611F96). In the negative control well's (baseline monitoring), flux buffer is added instead of chemokine. As a positive control to check for dye loading efficiency, 20 μM digitonin (final concentration) was also included. The agonist plate was incubated in the FLIPR (37° C.) for 15–30 min. Cell Loading Protocol for Measuring Inhibition of SDF-1[…] Induced Ca Flux in SUP-T1 Cells. SUP-T1 cells were centrifuged at room temperature (RT) and re-suspended in loading medium (RPMI-1640 containing 2% FBS and 4 μM Fluo-3, AM). The cells were incubate at room temperature for 45 min. then washed twice in flux buffer then incubated in flux buffer at room temperature for 10 min. The cells were centrifuged and re-suspended in flux buffer at a density of 3×10^6 cells per mL. A 100 uL aliquot of the cell suspension (3×10^5 cells) was added to each well of a black microplate (Costar 3603), which already contains 50 uL of a solution of the test compound (at concentrations that are 3-fold higher than the desired final compound concentrations). The microplate is then gently centrifuged at room temperature. Homogeneous spreading of the cells on the bottom of the microplate wells was then confirmed with a microscope and the microplate was incubated in the FLIPR (37° C.) for 10 min. prior to testing. Fluorescence Measurements as a Function of Time on the FLIPR The FLIPR settings (camera exposure time and laser power) are adjusted to obtain initial fluorescence values between 8,000 and 10,000 units. After monitoring a 20 second-baseline, the agonist (chemokine) (50 uL) is added by automatic pipettor with black pipette tips. Fluorescence is measured simultaneously in all wells of the microplate every 2 seconds (first 2 min) and thereafter every 6 seconds (additional 2 min). The average ca-flux measured in each set of 4 identical wells (one test compound) was calculated by the FLIPR software.

[2] = test system: HIV-1 NL4.3 or IIIB; test: Inhibition of HIV-1 (NL4.3 or IIIB, CXCR4 using) replication in MT-4 cells, MTT viability; settings: Human immunodeficiency virus 1, IIIB, MT4, concentration protecting 50% of virus-infected cells against viral cytopathicity
Method: Assay for Inhibition of HIV-1 (NL4.3) Replication in MT-4 Cells Inhibition of HIV-1 NL4.3 (or IIIB, CXCR4 using) replication assays were performed as previously described (Bridger et al. J. Med. Chem. 1999, 42, 3971-3981; De […] et al. Proc. Natl. Acad. Sci, 1992, 89, 5286-5290; De […] et al. Antimicrob. Agents Chemother. 1994, 38, 668-674; Bridger et al. J. Med. Chem. 1995, 38, 366-378; Schols et al. J. Exp. Med., 1997, 186, 1383-1388). Anti-HIV activity and cytotoxicity measurements were carried out in parallel. They were based on the viability of MT-4 cells that had been infected with HIV in the presence of various concentrations of the test compounds. After the MT-4 cells were allowed to proliferate for 5 days, the number of viable cells was quantified by a tetrazolium-based colorimetric 3-(4,5-dimethylthiazol-2-yl)-2,5-diphenyltetrazolium bromide (MTT) procedure in 96-well microtrays. In all of these assays, viral input (viral multiplicity of infection, MOI) was 0.01, or 100 times the 50% cell culture infective dose (CCID50). The EC50 was defined as the concentration required to protect 50% of the virus-infected cells against viral cytopathicity.

[3] = test system: HIV-1 BaL; test: Inhibition of HIV-1 BaL (CCR5 using) replication in PHA-stimulated PBMC's, viral p24 antigen expression; settings: Human immunodeficiency virus 1, BAL

| EC50 [2] [µg/mL] | EC50 [3] [µg/mL] | SMILES | inhibition at 20 µg/mL [1] [%] |
| --- | --- | --- | --- |
| – | < 20 | c1ccc(CNCc2ccc(CN(CCn3cnc4ccccc43)C3CCCc4cccnc43)cc2)nc1 (stereo not drawn) [Example 37, N-(2-pyridinylmethyl)-N′-[2-(benzimidazol-1-yl)eth-1-yl]-N′-(5,6,7,8-tetrahydro-8-quinolinyl)-1,4-benzenedimethanamine] | – |
| < 20 | < 20 | c1ccc(-c2ccc(-c3cnc(CN(Cc4ccc(CNCc5ccccn5)cc4)C4CCCc5cccnc54)[nH]3)cc2)cc1 (stereo not drawn) [Example 31, N-(2-Pyridinylmethyl)-N′-(4-(4-biphenyl)-1H-imidazol-2-ylmethyl)-N′-(5,6,7,8-tetrahydro-8-quinolinyl)-1,4-benzenedimethanamine] | – |
| < 20 | – | Cc1cccnc1CNCc1ccc(CN(Cc2nc3ccccc3[nH]2)C2CCCc3cccnc32)cc1 (stereo not drawn) [Example 56, N-(3-methyl-2-pyridinylmethyl)-N′-(1H-benzimidazol-2-ylmethyl)-N′-(5,6,7,8-tetrahydro-8-quinolinyl)-1,4-benzenedimethanamine] | > 20 |
| < 20 | – | CC1(N(Cc2ccc(CNCc3ccccn3)cc2)Cc2nc3ccccc3[nH]2)CCCc2cccnc21 (stereo not drawn) [Example 42, N-(2-pyridinylmethyl)-N′-(1H-benzimidazol-2-ylmethyl)-N′-(8-methyl-5,6,7,8-tetrahydro-8-quinolinyl)-1,4-benzenedimethanamine] | > 20 |
| < 20 | – | c1ccc(CNCc2ccc(CN(CCCc3nc4ccccc4[nH]3)C3CCCc4cccnc43)cc2)nc1 (stereo not drawn) [Example 24, N-(2-pyridinylmethyl)-N′-[3-(1H-benzimidazol-2-yl)prop-1-yl]-N′-(5,6,7,8-tetrahydro-8-quinolinyl)-1,4-benzenedimethanamine] | > 20 |
| < 20 | – | COc1cccnc1CNCc1ccc(CN(Cc2nc3ccccc3[nH]2)C2CCCc3cccnc32)cc1 (stereo not drawn) [Example 65, N-(3-methoxy-2-pyridinylmethyl)-N′-(1H-benzimidazol-2-ylmethyl)-N′-(5,6,7,8-tetrahydro-8-quinolinyl)-1,4-benzenedimethanamine] | > 20 |
| < 20 | – | c1cnc2c(c1)CCCC2NCc1ccc(CN(Cc2nc3ccccc3[nH]2)C2CCCc3cccnc32)cc1 (stereo not drawn) [Example 60, N-(5,6,7,8-tetrahydro-8-quinolinyl)-N′-(1H-benzimidazol-2-ylmethyl)-N′-(5,6,7,8-tetrahydro-8-quinolinyl)-1,4-benzenedimethanamine] | > 20 |
| < 20 | < 20 | COc1c(Br)cccc1-c1cnc(CN(Cc2ccc(CNCc3ccccn3)cc2)C2CCCc3cccnc32)[nH]1 (stereo not drawn) [Example 33, N-(2-Pyridinylmethyl)-N′-[5-(3-Bromo-2-methoxy-phenyl)-1H-imidazol-2-ylmethyl]-N′-(5,6,7,8-tetrahydro-8-quinolinyl)-1,4-benzenedimethanamine] | – |
| < 20 | – | c1ccc(CNCc2ccc(CN(CCCn3cnc4ccccc43)C3CCCc4cccnc43)cc2)nc1 (stereo not drawn) [Example 38, N-(2-pyridinylmethyl)-N′-[3-(benzimidazol-1-yl)prop-1-yl]-N′-(5,6,7,8-tetrahydro-8-quinolinyl)-1,4-benzenedimethanamine] | > 20 |
| < 20 | < 20 | c1ccc(CNCc2ccc(CN(Cc3ncc(-c4ccc5c(c4)CCCC5)[nH]3)C3CCCc4cccnc43)cc2)nc1 (stereo not drawn) [Example 32, N-(2-Pyridinylmethyl)-N′-[5-(5,6,7,8-tetrahydronaphthalen-2-yl)-1H-imidazol-2-ylmethyl]-N′-(5,6,7,8-tetrahydro-8-quinolinyl)-1,4-benzenedimethanamine] | – |
| < 20 | – | COc1ccnc2c1CCCC2N(Cc1ccc(CNCc2ccccn2)cc1)Cc1nc2ccccc2[nH]1 (stereo not drawn) [Example 44, N-(2-pyridinylmethyl)-N′-[1H-benzimidazol-2-ylmethyl]-N′-(4-methoxy-5,6,7,8-tetrahydro-8-quinolinyl)-1,4-benzenedimethanamine] | > 20 |

Continued, molecule first:

| SMILES | EC50 [2] [µg/mL] | EC50 [3] [µg/mL] | inhibition at 20 µg/mL [1] [%] |
| --- | --- | --- | --- |
| FC(F)(F)c1ccc2nc(CN(Cc3ccc(CNCc4ccccn4)cc3)C3CCCc4cccnc43)[nH]c2c1 (stereo not drawn) [Example 1, N-(2-pyridinylmethyl)-N′-(5-trifluoromethyl-1-H-benzimidazol-2-ylmethyl)-N′-(5,6,7,8-tetrahydro-8-quinolinyl)-1,4-benzenedimethanamine] | < 20 | < 20 | > 20 |
| c1ccc(CNCc2ccc(CN(Cc3cc4ccccc4[nH]3)C3CCCc4cccnc43)cc2)nc1 (stereo not drawn) [Example 19, N-(2-pyridinylmethyl)-N′-(indol-2-ylmethyl)-N′-(5,6,7,8-tetrahydro-8-quinolinyl)-1,4-benzenedimethanamine] | < 20 | < 20 | – |
| c1ccc(-c2cccc3nc(CN(Cc4ccc(CNCc5ccccn5)cc4)C4CCCc5cccnc54)[nH]c23)cc1 (stereo not drawn) [Example 14, N-(2-pyridinylmethyl)-N′-[4-phenyl-1H-benzimidazol-2-ylmethyl]-N′-(5,6,7,8-tetrahydro-8-quinolinyl)-1,4-benzenedimethanamine] | < 20 | < 20 | > 20 |
| Cc1ccc2nc(CN(Cc3ccc(CNCc4ccccn4)cc3)C3CCCc4cccnc43)oc2c1 (stereo not drawn) [Example 17, N-(2-pyridinylmethyl)-N′-(6-methylbenzoxazol-2-ylmethyl)-N′-(5,6,7,8-tetrahydro-8-quinolinyl)-1,4-benzenedimethanamine] | < 20 | < 20 | – |
| c1ccc(CNCc2ccc(CN(Cc3nc4ccccc4o3)C3CCCc4cccnc43)cc2)nc1 (stereo not drawn) [Example 8, N-(2-pyridinylmethyl)-N′-(benzoxazol-2-ylmethyl)-N′-(5,6,7,8-tetrahydro-8-quinolinyl)-1,4-benzenedimethanamine] | < 20 | < 20 | – |
| Brc1cccc2nc(CN(Cc3ccc(CNCc4ccccn4)cc3)C3CCCc4cccnc43)[nH]c12 (stereo not drawn) [Example 22, N-(2-pyridinylmethyl)-N′-(4-bromobenzimidazol-2-ylmethyl)-N′-(5,6,7,8-tetrahydro-8-quinolinyl)-1,4-benzenedimethanamine] | < 20 | – | > 20 |
| O=C(c1ccccc1)c1ccc2[nH]c(CN(Cc3ccc(CNCc4ccccn4)cc3)C3CCCc4cccnc43)nc2c1 (stereo not drawn) [Example 9, N-(2-pyridinylmethyl)-N′-(5-benzoyl-1H-benzimidazol-2-ylmethyl)-N′-(5,6,7,8-tetrahydro-8-quinolinyl)-1,4-benzenedimethanamine] | < 20 | – | > 20 |
| FC(F)(F)c1cccc2nc(CN(Cc3ccc(CNCc4ccccn4)cc3)C3CCCc4cccnc43)[nH]c12 (stereo not drawn) [Example 5, N-(2-pyridinylmethyl)-N′-(4-trifluoromethyl-1-H-benzimidazol-2-ylmethyl)-N′-(5,6,7,8-tetrahydro-8-quinolinyl)-1,4-benzenedimethanamine] | < 20 | – | > 20 |
